We go through five compounds from patent US20040157268A1, “Conformational assays to detect binding to membrane spanning, signal-transducing proteins” (priority 2001, published 2004).

The target in test [1] is T1, FM-β2AR (Homo sapiens, UniProt P07550). Put plainly: Quenching of FM-β2AR fluorescence (KI, oxyl-NHS, nitroxide fatty acids), Stern-Volmer. The class given is biochemical. More on the design: made in house. The settings on record: for quenching constant Ksv (nitroxide fatty acids): total lipid constant with stearic acid, n=3.
Test [2] concerns the target T1, FM-β2AR. Nature of the test: Fluorescence lifetime analysis of FM-β2AR (frequency domain). The class given is biochemical. More on the design: made in house. The source says: Fluorescence lifetime analysis of fluorescein labeled β2AR. […] The instrument covered a wide frequency range (4-5000 MHz), which allowed detection of lifetimes ranging from several nanoseconds to a few picoseconds. Samples were placed in a 10-mm path-length cuvette. The excitation was provided by the frequency-doubled output of a cavity-dumped pyridine-2 dye laser tuned at 370 nm synchronously pumped by a mode-locked argon ion laser. Sample emission was filtered through Corning 3-72 and 4-96 filters.
The governing equations for the time-resolved intensity decay data were assumed to be a sum of discrete exponentials as in I(t)=IoΣiαie^t/τ^i, where I(t) is the intensity decay, αi is the amplitude (pre-exponential factor) and τi is the fluorescence lifetime of the i-th discrete component; or a sum of Gaussian distribution functions as in the equation I(t)=IoΣiαiτe^t/τ and [formula]
In the frequency domain, the measured quantities at each frequency ω, are the phase shift (Øω) and demodulation factor (mω) of the emitted light versus the reference light.
Fractional intensity, amplitude, and lifetime parameters were recovered by a non-linear least squares procedure using the software developed at the Center for Fluorescence Spectroscopy. The measured data were compared with calculated values (Øcω,mcω) and the goodness of fit was characterized by [formula]
where ν is the number of degrees of freedom and δØ and δm are the uncertainties in the measured phase and modulation values, respectively. The sum extends over all frequencies (ω).

Test [3] deals with T1, FM-β2AR. Put plainly: Fluorescence intensity of FM-β2AR (fluorescein maleimide at Cys265), time course. The settings on record: ligand added to FM-β2AR, in words.
Test [4] has as its system FM-β2AR. Nature of the test: Quenching of FM-β2AR fluorescence (KI, oxyl-NHS, nitroxide fatty acids), Stern-Volmer. The class given is biochemical, human. The following applies: ISO-induced change in fluorescence with quencher vs without; 250 mM KI vs 250 mM KCl; Oxyl-NHS bound to K224 in TM5; ALP reversal as measure; n=3.
Setting [5] is: Gaussian lifetime distribution, long component.
Where [6] appears, read: Gaussian lifetime distribution, short component.
The mark [7] stands for this setting: fit to discrete exponential functions.

T1 sequence (P07550 whole entry, the tested form may be a part): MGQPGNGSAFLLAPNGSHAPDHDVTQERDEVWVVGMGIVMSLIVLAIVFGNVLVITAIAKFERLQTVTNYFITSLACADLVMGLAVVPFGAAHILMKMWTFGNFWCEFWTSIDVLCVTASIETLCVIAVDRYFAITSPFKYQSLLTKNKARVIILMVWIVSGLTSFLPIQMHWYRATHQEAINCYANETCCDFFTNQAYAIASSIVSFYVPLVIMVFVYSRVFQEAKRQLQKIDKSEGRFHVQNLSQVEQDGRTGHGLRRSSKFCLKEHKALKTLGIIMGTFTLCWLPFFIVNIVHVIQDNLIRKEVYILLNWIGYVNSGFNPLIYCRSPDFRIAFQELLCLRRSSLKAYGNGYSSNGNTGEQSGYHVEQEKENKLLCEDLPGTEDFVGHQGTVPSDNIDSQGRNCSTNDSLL

As for `CCCCCCCCCCCCCC1(CCCC(=O)O)OCC(C)(C)N1[O]` (stereo not shown) [5-DOX, 5-doxyl stearate], at FM-β2AR [1] (100 μM 5-DOX), the “effect on magnitude of the agonist-induced change in fluorescence” value was “no significant effect” and the “quenching of baseline fluorescence” value is 12%. The “quenching constant Ksv (nitroxide fatty acids)” value on FM-β2AR [1] was found to be 1.4 ± 0.2 mM⁻¹.

Consider `CCCCCCCCCCCCCCCC[N+](C)(C)C1CC(C)(C)N([O])C(C)(C)C1.[I-]` [CAT-16], for which, at FM-β2AR [1] (50 μM CAT-16), the “effect on magnitude of the agonist-induced fluorescence change” value is given as “more than two fold” and the “quenching of baseline fluorescence” value was about 12%. Moreover, on FM-β2AR [1], the “quenching constant Ksv (nitroxide fatty acids)” value came out at 2.4 ± 0.1 mM⁻¹.

For `CC(CCc1ccc(O)cc1)NCCc1ccc(O)c(O)c1` (stereo not shown) [DOB, dobutamine], on FM-β2AR [2] (setting [5]), the FWHMLONG amounted to 0.4±0.4 and the τLONG is 4.38±0.01 nsec. Also, on FM-β2AR [2] (setting [6]), the FWHMSHORT was 0.9±0.6 and the τSHORT was found to be 1.78±0.01 nsec. Further, at FM-β2AR [2] (setting [7]), the “τ1 (nsec)” value was 4.36 ± 0.01 nsec and the “τ2 (nsec)” value turned out to be 1.68 ± 0.3 nsec. For the same compound, the α2 on FM-β2AR [2] (fit to discrete exponential functions, fractional contribution of τ2) amounted to 0.07 ± 0.01. Moreover, on FM-β2AR [3], the “change in FM-β2AR fluorescence” value is on record as “progressively smaller changes”.

`[I-].[K+]` [KI, potassium iodide]: in the test on FM-β2AR [4], the “% of control ISO response” value is on record as 55.4±8.3%.

On to `CNC[C@H](O)c1ccc(O)c(O)c1` [epinephrine], for which the “change in FM-β2AR fluorescence” value at FM-β2AR [3] is “progressively smaller changes”.
